Literature values as cited in article PMC10200032 (Pharmacological Reports, 2023).
≈ marks a conversion by molar mass, not a printed value.

Test system: CVB4
Settings: reference drug in earlier benzoquinazoline studies

EC50 against CVB4: 29 µg/mL (≈ 119 µM)
Compound: NC(=O)c1ncn([C@@H]2O[C@H](CO)[C@@H](O)[C@H]2O)n1 [ribavirin]
